Source: doi:10.1101/705327v1 (biorxiv, 2019)

How the values were obtained:
Assay type in all cases: biochemical
recombinant mouse Acot13 [1] = target: T1, recombinant mouse Acot13 (Mus musculus, UniProt Q9CQR4); assay: thioesterase activity assay; settings: read-out: % inhibition at 10 mM
T1 sequence (Q9CQR4 1-140): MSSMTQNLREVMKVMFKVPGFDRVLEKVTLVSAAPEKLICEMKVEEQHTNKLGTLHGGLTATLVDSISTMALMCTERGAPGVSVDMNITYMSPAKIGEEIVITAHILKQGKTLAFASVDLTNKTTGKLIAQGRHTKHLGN

Acot2 = target: T2, Acot2 (Mus musculus, UniProt Q9QYR9); assay: thioesterase activity in liver mitochondria overexpressing Acot2; settings: read-out: % inhibition at 10 mM
T2 sequence (Q9QYR9 43-453): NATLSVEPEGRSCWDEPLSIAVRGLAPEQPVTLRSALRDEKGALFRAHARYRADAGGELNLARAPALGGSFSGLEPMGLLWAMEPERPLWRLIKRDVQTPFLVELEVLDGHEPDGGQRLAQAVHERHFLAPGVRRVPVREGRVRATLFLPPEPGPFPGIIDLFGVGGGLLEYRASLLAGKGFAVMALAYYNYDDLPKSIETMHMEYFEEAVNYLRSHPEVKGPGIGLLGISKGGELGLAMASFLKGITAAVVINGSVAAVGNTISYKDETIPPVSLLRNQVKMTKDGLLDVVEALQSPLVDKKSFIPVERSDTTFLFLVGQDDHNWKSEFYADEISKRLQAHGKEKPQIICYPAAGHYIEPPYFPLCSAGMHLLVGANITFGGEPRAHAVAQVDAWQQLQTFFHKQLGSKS

recombinant mouse Acot13 [2] = target: T1, recombinant mouse Acot13; assay: thioesterase activity assay

| inhibition at 10000 µM (recombinant mouse Acot13 [1]) | inhibition at 10000 µM (Acot2) | IC50 (recombinant mouse Acot13 [2]) | SMILES |
| --- | --- | --- | --- |
| ~20% | ~20% |  | Nc1ncnc2c1ncn2[C@@H]1O[C@H](COP(=O)(O)OP(=O)(O)O)[C@@H](O)[C@H]1O [ADP] |
| ~20% | ~20% |  | Nc1ncnc2c1ncn2[C@@H]1O[C@H](COP(=O)(O)OP(=O)(O)OP(=O)(O)O)[C@@H](O)[C@H]1O [ATP] |
|  |  | ~35 µM | CC(C)(COP(=O)(O)OP(=O)(O)OC[C@H]1O[C@@H](n2cnc3c(N)ncnc32)[C@H](O)[C@@H]1OP(=O)(O)O)[C@@H](O)C(=O)NCCC(=O)NCCS [CoA] |
